In US20180353445A1, “METHODS AND COMPOSITIONS RELATING TO PROTEASOME INHIBITOR RESISTANCE” (Whitehead Institute for Biomedical Research, priority 2017, published 2018):
Residues, ends and D or L forms follow the SMILES beside them. *: point of attachment. Cbz = O=C(OCc1ccccc1)*

Legend:
T47D cells = assay: Cell viability, T47D cells with doxycycline-inducible PSMD2 shRNA (KD) vs control; assay type: cell-based, human; conditions: doxycycline-regulated PSMD2 shRNA
Protocol: FIGS. 37A-37E: Subunit suppression results in highly specific drug sensitivity alteration. Schematic representation of the drug screen setup. (FIG. 37A) 147D cells harboring a doxycycline-inducible PSMD2 shRNA were grown in the presence or absence of doxycycline for 48 hr. Cells were then collected, washed, and plated in the absence of doxycycline for 24 hr prior to exposure different compounds. Relative cell numbers were measured 3 days later. […] (FIGS. 37C-37E) The relative viability of the PSMD2 knockdown (KD) versus the control was calculated for replica experiments and the log2 of the ratio is plotted for 349 compounds from the Selleck anti-cancer L3000 drug library that were tested in 4 concentrations (FIG. 37C), the Selleck natural product library (NPC) comprising 502 compounds in 5 doses (FIG. 37D), and the NIH bioactive compound library that includes 731 compounds in 4 doses (FIG. 37E). Specific compounds are annotated.
The effect of transient PSMD2 reduction on growth of T47D cells in the presence of different proteasome inhibitors (bortezomib, MLN9708, carfilzomib, oprozornib) was tested. T47D cells harboring a doxycycline inducible control shRNA (GFP) or a doxycycline-inducible PSMD2 shRNA (TurhoRFP) were incubated with doxycycline for 3 days. Cells were then split and grown in the absence of Dox and proteasome inhibitors were then added at various concentrations. Cells were maintained in culture and then counted.
For the generation of the T47D Tet-inducible PSMD2 knockdown cell line- the TRIPZ vector with an inducible shRNA targeting PSMD2 was purchased from Dhannacon (clone V3THS_403760). It was introduced to the T47D cells according to manufactures protocol and cells were selected with puromycin 1 μg/ml for one week. The cells were exposed to doxycycline for 24 hours and cells were FACS sorted for the top 10% of most RFP expressing cells (highest expression of shRNA). The cells were further cultured in the absence of doxycycline and PSMD2 knockdown was induced as specified in the relevant Examples. The TRIPZ control GFP vector was created by removing the turboRFP from the TRIPZ control vector by digestion with Agel and ClaI and replacing it with GFP amplified with primers flanking with Agel and Clal restriction sites.
Cell Viability Assay—Relative cell growth and survival were measured in 96-well microplate format in the shRNA experiments and in 384 well format in the drug toxicity assays, by using the fluorescent detection of resazurin dye reduction as an endpoint (544 nm excitation and 590 run emission). 2,500 cells in 96 wells format or 1,000 cells in 384 well format were plated 24 hours before compound exposure (for 72 hours or indicated time). Each analysis was performed at least with three replicas.

Saccharomyces cerevisiae = assay: Yeast MG132 sensitivity assay, proteasome subunit DAmP strains; assay type: cell-based; conditions: five of twelve strains, 50 μM
Protocol: FIG. 7: Reducing the levels of 19S subunits is an evolutionarily conserved mechanism to acquire resistance to proteasome inhibition.
As the 19S regulatory complex components are essential for viability in yeast, we utilized a library of hypomorphic (DAmP) alleles for essential yeast genes. In this library, the expression of individual mRNA. species is reduced from two to ten-fold by replacing the mRNA's 3′ untranslated region (Breslow et al., 2008).
Yeast cells were grown over night in media containing L-proline as nitrogen source instead of ammonium sulfate. The overnight cultures were diluted into OD 0.1 and were grown in the L-proline culture with 0.003% SDS with or without 50 μM MG-132. OD was measured over the period of 48 hours.

cancer cell lines (GDSC) = assay: Genomics of Drug Sensitivity in Cancer (GDSC) data analysis, IC50 of bortezomib and MG132 vs 19S expression / sigma score; assay type: cell-based, human; conditions: GDSC database
From the text: In some aspects, whether a cancer cell is considered resistant or sensitive to a particular agent may be determined by comparing the IC50 of the agent for the cancer cell with the IC50 of the agent as measured for each cell line in a panel of diverse cancer cell lines. Cancer cells for which the agent has an IC50 in the 10th percentile of IC50 values determined for the agent on a diverse panel of cancer cell lines may be considered sensitive, while cancer cells for which the agent has an IC50 in the 90th percentile of IC50 values determined for the agent on a diverse panel of cancer cell lines may be considered resistant to the agent.
We asked if this might correlate with changes in 19S subunit expression. We analyzed the Genomics of Drug Sensitivity in Cancer (GDSC) database, a public resource of transcriptional data and drug responsiveness collected from a spectrum of human cancer cell lines with diverse tissue origins and diverse oncogenic lesions (Garnett et al., 2012). […]
Further details of methods used in GDSC dataset analysis: Gene expression and drug sensitivity data was downloaded from the World Wide Web at subdomain cancerrxgene.org. […] For each proteasomal subunit gene, a-score was calculated for each cell line. […] P-values were calculated by t-test, comparing the logEC50s between the 3 sigma and not 3 sigma.

SMILES: CC(C)C[C@@H](C=O)NC(=O)[C@H](CC(C)C)NC(=O)[C@H](CC(C)C)NC(=O)OCc1ccccc1 [MG132, N-(benzyloxycathonyl)leucinylieucinylieucinal] (Cbz-Leu-Leu-Leu-aldehyde)
- resistance after transient reduction of PSMD2 (T47D cells): significantly increased resistance
- resistance of 19S DAmP yeast strains to proteasome inhibition (Saccharomyces cerevisiae): significantly increased resistance
- average IC50 value in 3-Sigma cell lines vs all other lines (cancer cell lines (GDSC)): considerably higher
